What was measured:
Ras farnesyl transferase [1] = molecular target: T1, Ras farnesyl transferase (Rattus norvegicus, UniProt Q02293+Q04631); experiment: In vivo (cellular) inhibitory activity for Ras farnesyl transferase, Rat2 cell line which expresses C-Harvey-Ras protein; format: cell-based
T1 construct: endogenous in cells; host or cells: Rat2 fibroblasts transformed with H-Ras or with an H-Ras/K-Ras C-terminus fusion
Procedure, shortened: (§1)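 Farnesylated versus unfarnesylated Ras bands were measured by autoradiography after Y13-259 immunoprecipitation and SDS-PAGE, giving CIC50 as 50% inhibition of farnesylation. Rat2 cells expressing H-Ras or an H-Ras fusion with K-Ras polybasic C-terminus got compound (1% DMSO), then [35S]methionine from 4 h onward for 20 h.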

Ras farnesyl transferase [2] = molecular target: T1, Ras farnesyl transferase; experiment: In vivo (cellular) inhibitory activity for Ras farnesyl transferase, Rat2 cell line transformed with fused protein of H-Ras substituted with polybasic lysine domain at C-terminus of K-Ras; format: cell-based
Procedure, shortened: as §1

Ras farnesyl transferase [3] = molecular target: T2, Ras farnesyl transferase (Homo sapiens, UniProt P49354+P49356); experiment: In vitro inhibitory activity for Ras farnesyl transferase, H-Ras substrate; format: biochemical
T2 construct: made in house

Ras farnesyl transferase [4] = molecular target: T2, Ras farnesyl transferase; experiment: In vitro inhibitory activity for Ras farnesyl transferase, K-Ras substrate; format: biochemical
[5] = Rat2 cell line expressing C-Harvey-Ras, concentration inhibiting 50% of farnesyl bonding of Ras protein, read-out: H-Ras CIC50
[6] = Rat2 cell line transformed with H-Ras fused with polybasic lysine domain of K-Ras C-terminus, concentration inhibiting 50% of farnesyl bonding, read-out: K-Ras CIC50
[7] = recombinant farnesyl transferase 4.5 nM, Ras substrate protein 1.5 μM, tritium-farnesylpyrophosphate 0.15 μM, 30 minutes at 37° C., read-out: H-Ras IC50
[8] = in vitro farnesyl transferase assay, K-Ras, read-out: K-Ras IC50

SMILES | IC50 (Ras farnesyl transferase [1]; [5]) [nM] | IC50 (Ras farnesyl transferase [2]; [6]) [nM] | IC50 (Ras farnesyl transferase [3]; [7]) [nM] | IC50 (Ras farnesyl transferase [4]; [8]) [nM] | IC50 (Ras farnesyl transferase [1]) [nM] | IC50 (Ras farnesyl transferase [2]) [nM] | IC50 (Ras farnesyl transferase [3]) [nM] | IC50 (Ras farnesyl transferase [4]) [nM]
COCCN(C)C(=O)c1cn(Cc2cncn2Cc2ccc(C#N)cc2)nc1-c1cccc2ccccc12 [Compound 156, 1-[1-(4-Cyanobenzyl)-1H-imidazol-5-ylmethyl]-4-[N-(2-methoxyethyl)-N-methyl]-carbamoyl-3-(naphthalen-1-yl)-1H-pyrazole] | 100 | 40000 | 20 | 200 |  |  |  | 
COCCN(C)C(=O)c1cn(Cc2cncn2Cc2cccc3ccccc23)cc1-c1cccc2ccccc12 [Compound 5] | 25 | 10000 to 50000 | 3.7 | 8.5 |  |  |  | 
O=C(c1ccccc1Cl)c1cn(Cc2c[nH]cn2)cc1-c1cccc2ccccc12 [Compound 55] | 1000 to 50000 | 10000 to 100000 | 60 | 100 to 10000 |  |  |  | 
COC(=O)C(CCSC)NC(=O)c1cn(Cc2cncn2Cc2ccc(C#N)cc2)cc1-c1cccc2ccccc12 (stereo in doubt) [Compound 100, (S)-1-[1-(4-Cyanobenzyl)-1H-imidazol-5-yl]methyl-3-[N-(1-methoxycarbonyl-3-methylthio)propyl]carbamoyl-4-(naphthalen-1-yl)-1H-pyrrole] | > 1000 | > 20000 | 1800 | 100 to 10000 |  |  |  | 
CSCC[C@H](NC(=O)c1cn(Cc2cncn2Cc2ccc(C#N)cc2)cc1-c1cccc2ccccc12)C(=O)O [Compound 101, (S)-1-[1-(4-Cyanobenzyl)-1H-imidazol-5-yl]methyl-3-[N-(1-hydroxycarbonyl-3-methylthio)propyl]carbamoyl-4(naphthalen-1-yl)-1H-pyrrole] | > 5000 | > 50000 | 10 | 800 |  |  |  | 
O=C(c1cn(Cc2c[nH]cn2)cc1-c1cccc2ccccc12)N1CCSCC1 [Compound 86] | 2000 | > 50000 | 30 | 100 to 10000 |  |  |  | 
COCCN(C)C(=O)c1cn(Cc2cncn2C(C)c2ccccc2)cc1-c1cccc2ccccc12 (stereo in doubt) [Compound 8, 3-[N-(2-Methoxyethyl)-N-methyl]carbamoyl-1-[1-((R)-α-methylbenzyl)-1H-imidazol-5-ylmethyl]-4-(naphthalen-1-yl)-1H-pyrrole] | 25 | 10000 to 50000 | 4 | 8 |  |  |  | 
CCCCc1c(-c2cccc3ccccc23)c(C(=O)c2ccc(Cl)cc2Cl)cn1Cc1c[nH]cn1 [Compound 71] | 1000 to 50000 | 10000 to 100000 | 120 | 100 to 10000 |  |  |  | 
O=C1CCN(C(=O)c2cn(Cc3c[nH]cn3)cc2-c2cccc3ccccc23)CC1 [Compound 92] |  |  |  |  | 1000 to 50000 | 10000 to 100000 | 70 | 100 to 10000
CN1CCN(C(=O)c2cn(Cc3cncn3Cc3ccc4ccccc4c3)cc2-c2cccc3ccccc23)CC1 [Compound 30] | 10 | 10000 to 20000 | 2 | 4 |  |  |  | 
O=C(c1ccn(Cc2cncn2Cc2ccc(Br)cc2)c1)c1cccc2ccccc12 [Compound 140, 1-[1-(4-Bromobenzyl)-1H-imidazol-5-yl]methyl-3-(naphthalen-1-yl)carbonyl-1H-pyrrole] |  |  |  |  | 1000 to 10000 | 10000 to 50000 | 90 | 10000 to 50000
N#Cc1ccc(Cn2cncc2Cn2cc(C(=O)c3cccc(Br)c3)c(-c3cccc4ccccc34)c2)cc1 [Compound 76] | 100 to 1000 | 10000 to 100000 | 4 | 100 to 10000 |  |  |  | 
COCCN(C)C(=O)c1cn(Cc2cncn2Cc2ccccc2Cl)cc1-c1cccc2ccccc12 [Compound 134, 1-[1-(2-Chlorobenzyl)-1H-imidazol-5-yl]methyl-3-[N-(2-methoxyethyl)-N-methyl]carbamoyl-4-(naphthalen-1-yl)-1H-pyrrole] | 25 | 10000 to 50000 | 2.7 | 2 |  |  |  | 
O=C(c1ccc(Cc2ccccc2)cc1)c1cn(Cc2c[nH]cn2)cc1-c1cccc2ccccc12 [Compound 68] | 1000 to 50000 | 10000 to 100000 | 120 | 100 to 10000 |  |  |  | 

Reference: patent US6472526B1, “Imidazole derivatives having an inhibitory activity for farnesyl transferase and process for preparation thereof” (LG Chemical Ltd., priority 1997, dated 2002)
